ChEMBL document CHEMBL3621167, “Therapeutic Potential of 5-HT6 Receptor Agonists” (J Med Chem, 2015)

Tests used:
Homo sapiens [1] = species on record: Homo sapiens; experiment: Selectivity ratio of Ki for human 5-HT5A receptor to Ki for human 5-HT6 receptor
Homo sapiens [2] = species on record: Homo sapiens; experiment: Selectivity ratio of Ki for human 5-HT1D receptor to Ki for human 5-HT6 receptor
Homo sapiens [3] = species on record: Homo sapiens; experiment: Selectivity ratio of Ki for human 5-HT1A receptor to Ki for human 5-HT6 receptor
Homo sapiens [4] = species on record: Homo sapiens; experiment: Selectivity ratio of Ki for human 5-HT1B receptor to Ki for human 5-HT6 receptor
Homo sapiens [5] = species on record: Homo sapiens; experiment: Selectivity ratio of Ki for human 5-HT7 receptor to Ki for human 5-HT6 receptor
Homo sapiens [6] = species on record: Homo sapiens; experiment: Selectivity ratio of Ki for human 5-HT1F receptor to Ki for human 5-HT6 receptor
[7] = molecular target: 5-hydroxytryptamine receptor 7 (Homo sapiens, UniProt P34969); experiment: Binding affinity to 5-HT7 receptor (unknown origin)
Chain of 5-hydroxytryptamine receptor 7 (P34969 whole entry): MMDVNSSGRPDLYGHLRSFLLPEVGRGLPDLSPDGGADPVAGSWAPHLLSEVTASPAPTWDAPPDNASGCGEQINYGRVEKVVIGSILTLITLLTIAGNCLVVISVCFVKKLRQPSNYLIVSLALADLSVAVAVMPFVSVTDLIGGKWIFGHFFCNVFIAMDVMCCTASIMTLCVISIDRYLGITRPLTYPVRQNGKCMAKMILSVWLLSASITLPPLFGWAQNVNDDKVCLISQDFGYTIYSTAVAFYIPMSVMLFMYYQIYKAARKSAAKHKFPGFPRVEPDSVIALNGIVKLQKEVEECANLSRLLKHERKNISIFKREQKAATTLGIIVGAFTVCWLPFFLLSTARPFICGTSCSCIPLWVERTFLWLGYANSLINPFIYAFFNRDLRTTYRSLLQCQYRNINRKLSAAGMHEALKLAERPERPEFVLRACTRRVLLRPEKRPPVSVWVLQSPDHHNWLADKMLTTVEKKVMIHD

[8] = molecular target: 5-hydroxytryptamine receptor 6 (Homo sapiens, UniProt P50406); experiment: Agonist activity at 5-HT6 receptor (unknown origin)
Chain of 5-hydroxytryptamine receptor 6 (Homo sapiens, UniProt P50406) (P50406 whole entry): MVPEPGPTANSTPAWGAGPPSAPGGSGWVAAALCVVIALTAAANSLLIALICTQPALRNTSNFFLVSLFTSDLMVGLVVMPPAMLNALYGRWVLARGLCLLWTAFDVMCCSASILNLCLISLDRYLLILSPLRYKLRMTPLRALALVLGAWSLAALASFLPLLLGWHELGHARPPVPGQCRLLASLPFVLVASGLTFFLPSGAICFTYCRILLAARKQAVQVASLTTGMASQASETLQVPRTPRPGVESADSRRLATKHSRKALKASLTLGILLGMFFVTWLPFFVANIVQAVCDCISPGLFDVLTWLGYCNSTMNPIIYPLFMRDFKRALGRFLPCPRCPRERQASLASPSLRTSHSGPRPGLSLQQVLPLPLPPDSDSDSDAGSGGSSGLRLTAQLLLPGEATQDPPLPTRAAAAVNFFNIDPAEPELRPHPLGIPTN

[9] = molecular target: T1, Adrenergic receptor alpha-2 (Rattus norvegicus, UniProt P22086+P19328+P22909); experiment: Binding affinity to rat alpha2 adrenergic receptor
T1 sequence (P22086 whole entry): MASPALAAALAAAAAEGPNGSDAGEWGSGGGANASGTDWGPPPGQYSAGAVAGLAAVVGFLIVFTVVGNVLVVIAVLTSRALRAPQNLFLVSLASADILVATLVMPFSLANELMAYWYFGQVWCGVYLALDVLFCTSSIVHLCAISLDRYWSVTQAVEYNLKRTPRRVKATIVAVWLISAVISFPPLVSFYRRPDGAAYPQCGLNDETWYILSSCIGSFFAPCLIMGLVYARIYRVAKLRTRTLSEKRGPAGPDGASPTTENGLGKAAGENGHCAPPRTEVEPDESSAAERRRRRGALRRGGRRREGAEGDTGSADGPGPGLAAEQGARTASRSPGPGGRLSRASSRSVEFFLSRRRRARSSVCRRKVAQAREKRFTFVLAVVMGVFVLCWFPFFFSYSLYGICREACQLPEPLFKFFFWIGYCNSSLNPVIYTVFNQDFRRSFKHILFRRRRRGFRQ
T1 sequence (P19328 whole entry): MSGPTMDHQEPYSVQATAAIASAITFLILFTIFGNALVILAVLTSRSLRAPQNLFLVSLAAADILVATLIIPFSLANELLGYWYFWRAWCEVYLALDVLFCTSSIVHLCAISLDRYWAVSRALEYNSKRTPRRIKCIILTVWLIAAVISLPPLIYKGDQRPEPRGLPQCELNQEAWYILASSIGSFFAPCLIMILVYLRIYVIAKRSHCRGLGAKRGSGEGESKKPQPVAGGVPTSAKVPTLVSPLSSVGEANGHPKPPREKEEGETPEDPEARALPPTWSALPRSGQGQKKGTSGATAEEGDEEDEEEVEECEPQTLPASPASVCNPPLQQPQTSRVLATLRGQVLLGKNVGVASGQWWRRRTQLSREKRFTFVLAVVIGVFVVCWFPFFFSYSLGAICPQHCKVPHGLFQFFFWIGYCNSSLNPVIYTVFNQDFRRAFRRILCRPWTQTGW
T1 sequence (P22909 whole entry): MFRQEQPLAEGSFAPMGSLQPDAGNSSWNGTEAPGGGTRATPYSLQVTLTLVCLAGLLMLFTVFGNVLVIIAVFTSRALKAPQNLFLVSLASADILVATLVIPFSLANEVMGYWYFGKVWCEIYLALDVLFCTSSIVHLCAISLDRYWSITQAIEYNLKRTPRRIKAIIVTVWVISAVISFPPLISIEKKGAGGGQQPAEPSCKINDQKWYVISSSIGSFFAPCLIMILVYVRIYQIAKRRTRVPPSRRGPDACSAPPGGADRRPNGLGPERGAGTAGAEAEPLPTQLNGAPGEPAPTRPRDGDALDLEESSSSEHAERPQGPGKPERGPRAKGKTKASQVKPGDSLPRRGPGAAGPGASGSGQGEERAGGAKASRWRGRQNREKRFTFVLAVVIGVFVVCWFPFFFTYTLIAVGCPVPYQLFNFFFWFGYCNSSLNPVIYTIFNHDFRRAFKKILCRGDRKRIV

[10] = molecular target: T2, Adrenergic receptor alpha-2 (Homo sapiens, UniProt P08913+P18825+P18089); experiment: Binding affinity to human recombinant alpha2 adrenergic receptor; format: protein assay
T2 sequence (P08913 whole entry): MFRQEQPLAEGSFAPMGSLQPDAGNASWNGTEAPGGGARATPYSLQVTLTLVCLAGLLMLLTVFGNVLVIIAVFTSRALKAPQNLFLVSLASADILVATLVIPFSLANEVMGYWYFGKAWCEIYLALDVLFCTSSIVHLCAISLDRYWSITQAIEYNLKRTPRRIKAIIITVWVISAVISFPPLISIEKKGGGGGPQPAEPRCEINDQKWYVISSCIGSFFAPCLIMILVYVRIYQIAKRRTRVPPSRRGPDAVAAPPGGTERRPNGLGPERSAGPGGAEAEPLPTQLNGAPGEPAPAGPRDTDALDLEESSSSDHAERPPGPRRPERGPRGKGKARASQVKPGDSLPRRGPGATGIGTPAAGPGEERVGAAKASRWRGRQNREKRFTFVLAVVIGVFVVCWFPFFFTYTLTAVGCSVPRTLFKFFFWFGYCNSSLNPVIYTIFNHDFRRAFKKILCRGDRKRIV
T2 sequence (P18825 whole entry): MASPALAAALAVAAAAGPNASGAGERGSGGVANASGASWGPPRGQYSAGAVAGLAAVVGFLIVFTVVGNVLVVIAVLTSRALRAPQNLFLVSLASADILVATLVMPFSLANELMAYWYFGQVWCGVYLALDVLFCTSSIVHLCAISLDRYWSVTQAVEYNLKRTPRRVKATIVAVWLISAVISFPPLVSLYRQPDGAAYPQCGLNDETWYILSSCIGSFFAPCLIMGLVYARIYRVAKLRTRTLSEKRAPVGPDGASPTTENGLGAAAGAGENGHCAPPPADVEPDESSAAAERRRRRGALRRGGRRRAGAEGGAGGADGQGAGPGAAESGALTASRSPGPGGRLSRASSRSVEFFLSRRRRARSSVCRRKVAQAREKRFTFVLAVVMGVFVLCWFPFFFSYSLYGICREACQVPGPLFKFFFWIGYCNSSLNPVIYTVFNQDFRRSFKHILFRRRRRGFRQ
T2 sequence (P18089 whole entry): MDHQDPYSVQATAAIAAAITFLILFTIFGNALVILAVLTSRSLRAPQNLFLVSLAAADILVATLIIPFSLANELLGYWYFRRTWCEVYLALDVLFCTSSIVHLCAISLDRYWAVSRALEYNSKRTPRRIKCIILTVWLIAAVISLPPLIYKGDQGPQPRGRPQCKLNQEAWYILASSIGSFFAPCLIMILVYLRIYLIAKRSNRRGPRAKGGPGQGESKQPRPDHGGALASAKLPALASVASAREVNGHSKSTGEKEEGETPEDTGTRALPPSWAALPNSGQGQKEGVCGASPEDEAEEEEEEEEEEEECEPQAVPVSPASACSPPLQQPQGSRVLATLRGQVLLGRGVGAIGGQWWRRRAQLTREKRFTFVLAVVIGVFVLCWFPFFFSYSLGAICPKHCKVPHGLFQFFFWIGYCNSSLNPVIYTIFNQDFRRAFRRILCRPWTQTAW

[11] = Selectivity ratio of Ki for 5-HT2B receptor (unknown origin) to Ki for rat 5-HT6 receptor
[12] = molecular target: 5-hydroxytryptamine receptor 2B (Homo sapiens, UniProt P41595); experiment: Binding affinity to 5-HT2B receptor (unknown origin)
Chain of 5-hydroxytryptamine receptor 2B (P41595 whole entry): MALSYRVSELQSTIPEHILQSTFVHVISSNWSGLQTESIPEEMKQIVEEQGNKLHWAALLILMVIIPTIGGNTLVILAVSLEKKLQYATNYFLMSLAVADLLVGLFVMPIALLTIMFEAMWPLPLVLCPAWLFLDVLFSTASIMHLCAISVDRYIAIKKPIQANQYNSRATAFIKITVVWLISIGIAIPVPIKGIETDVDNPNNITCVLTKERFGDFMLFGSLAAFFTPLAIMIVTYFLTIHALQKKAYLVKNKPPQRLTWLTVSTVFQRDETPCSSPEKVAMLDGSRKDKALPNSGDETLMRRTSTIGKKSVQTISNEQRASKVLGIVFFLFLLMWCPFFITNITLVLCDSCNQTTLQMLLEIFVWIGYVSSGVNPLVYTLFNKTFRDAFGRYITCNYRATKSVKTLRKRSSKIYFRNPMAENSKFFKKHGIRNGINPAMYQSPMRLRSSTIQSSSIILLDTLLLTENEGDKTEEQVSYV

[13] = molecular target: 5-hydroxytryptamine receptor 6 (Rattus norvegicus, UniProt P31388); experiment: Displacement of [3H] lysergic acid diethylamide from rat 5-HT6 receptor transfected in HEK293 cells after 60 mins by scintillation counter; format: cell-based
Chain of 5-hydroxytryptamine receptor 6 (Rattus norvegicus, UniProt P31388) (P31388 whole entry): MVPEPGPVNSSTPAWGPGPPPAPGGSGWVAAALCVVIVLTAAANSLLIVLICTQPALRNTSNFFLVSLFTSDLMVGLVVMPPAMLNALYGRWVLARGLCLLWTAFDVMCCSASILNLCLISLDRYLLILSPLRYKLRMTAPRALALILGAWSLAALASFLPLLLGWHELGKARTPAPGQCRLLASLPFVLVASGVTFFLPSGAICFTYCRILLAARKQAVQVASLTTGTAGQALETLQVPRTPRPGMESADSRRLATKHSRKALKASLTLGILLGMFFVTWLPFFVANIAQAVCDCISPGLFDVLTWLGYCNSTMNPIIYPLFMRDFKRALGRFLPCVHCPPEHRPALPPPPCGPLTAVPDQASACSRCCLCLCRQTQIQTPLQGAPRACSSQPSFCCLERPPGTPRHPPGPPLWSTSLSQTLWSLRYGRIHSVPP

[14] = Selectivity ratio of Ki for 5-HT7 receptor (unknown origin) to Ki for rat 5-HT6 receptor
[15] = molecular target: T3, Adrenergic receptor alpha-1 (Rattus norvegicus, UniProt P15823+P23944+P43140); experiment: Binding affinity to rat alpha1 adrenergic receptor
T3 sequence (P15823 whole entry): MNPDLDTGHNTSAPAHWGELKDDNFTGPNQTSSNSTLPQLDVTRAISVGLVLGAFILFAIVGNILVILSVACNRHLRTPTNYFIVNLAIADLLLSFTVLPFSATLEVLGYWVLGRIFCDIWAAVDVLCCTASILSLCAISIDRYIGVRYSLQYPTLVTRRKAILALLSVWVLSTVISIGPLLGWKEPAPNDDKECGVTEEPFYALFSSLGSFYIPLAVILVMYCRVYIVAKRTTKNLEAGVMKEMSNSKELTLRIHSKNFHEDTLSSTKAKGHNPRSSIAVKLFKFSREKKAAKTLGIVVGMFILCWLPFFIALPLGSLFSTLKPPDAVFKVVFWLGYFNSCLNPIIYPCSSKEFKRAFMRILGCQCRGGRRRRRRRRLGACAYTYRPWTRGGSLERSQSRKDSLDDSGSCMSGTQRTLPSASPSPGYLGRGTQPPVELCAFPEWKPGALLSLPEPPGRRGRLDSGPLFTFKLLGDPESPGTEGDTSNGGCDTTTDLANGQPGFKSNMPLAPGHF
T3 sequence (P23944 whole entry): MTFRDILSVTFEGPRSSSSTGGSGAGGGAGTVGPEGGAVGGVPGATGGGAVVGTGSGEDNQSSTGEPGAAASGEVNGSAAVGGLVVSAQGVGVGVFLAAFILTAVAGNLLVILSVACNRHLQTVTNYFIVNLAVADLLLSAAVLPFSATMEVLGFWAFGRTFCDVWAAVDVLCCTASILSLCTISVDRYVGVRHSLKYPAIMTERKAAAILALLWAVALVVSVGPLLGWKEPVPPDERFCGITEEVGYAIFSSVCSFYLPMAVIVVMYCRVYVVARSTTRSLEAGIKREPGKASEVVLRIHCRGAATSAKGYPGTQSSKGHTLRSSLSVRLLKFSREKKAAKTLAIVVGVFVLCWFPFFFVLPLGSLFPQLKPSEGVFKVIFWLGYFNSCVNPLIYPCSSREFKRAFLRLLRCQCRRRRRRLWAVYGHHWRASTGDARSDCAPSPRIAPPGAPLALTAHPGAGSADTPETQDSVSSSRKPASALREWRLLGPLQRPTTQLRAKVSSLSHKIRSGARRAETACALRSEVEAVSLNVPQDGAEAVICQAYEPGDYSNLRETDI
T3 sequence (P43140 whole entry): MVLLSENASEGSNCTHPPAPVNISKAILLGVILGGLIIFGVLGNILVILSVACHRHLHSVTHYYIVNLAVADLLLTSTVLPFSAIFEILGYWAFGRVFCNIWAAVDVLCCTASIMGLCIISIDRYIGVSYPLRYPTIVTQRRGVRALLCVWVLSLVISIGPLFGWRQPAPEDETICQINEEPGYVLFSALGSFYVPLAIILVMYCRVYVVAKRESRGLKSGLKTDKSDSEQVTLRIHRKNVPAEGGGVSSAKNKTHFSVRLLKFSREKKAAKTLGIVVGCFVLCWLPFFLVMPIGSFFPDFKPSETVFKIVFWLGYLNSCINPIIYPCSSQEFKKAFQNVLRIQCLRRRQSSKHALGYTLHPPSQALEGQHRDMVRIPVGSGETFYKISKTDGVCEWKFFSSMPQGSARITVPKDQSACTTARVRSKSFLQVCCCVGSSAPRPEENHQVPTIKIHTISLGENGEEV

SMILES	Ratio Ki (Homo sapiens [1])	Ratio Ki (Homo sapiens [2])	Ratio Ki (Homo sapiens [3])	Ratio Ki (Homo sapiens [4])	Ratio Ki (Homo sapiens [5])	Ratio Ki (Homo sapiens [6])	Ki [7] [nM]	EC50 [8] [nM]	Ki [9] [nM]	Ki [10] [nM]	Ratio Ki [11]	Ki [12] [nM]	Ki [13] [nM]	Ratio Ki [14]	Ki [15] [nM]
CN(C)CCc1cn(S(=O)(=O)c2ccccc2)c2ccccc12	> 100	> 100	> 100	> 100	> 100	> 100									
Cc1[nH]c2ccc(Cl)cc2c1CCN(C)C							290	44.8	300	300	8	245	28.8	10	300
